Experimental data reported in patent US6787535B2, “Indole derivatives with 5HT6 receptor affinity” (Syntex (U.S.A.) LLC, priority 2001, dated 2004).
Counter-ions that a name gives are not always drawn.

melting point | SMILES
207 to 208 °C | O=S(=O)(c1ccncc1)c1c[nH]c2c(N3CCNCC3)cccc12
198 to 199 °C | O=S(=O)(c1ccccn1)c1c[nH]c2c(N3CCNCC3)cccc12
278 to 280 °C | O=S(=O)(c1ccccc1)c1c[nH]c2c(N3CCNCC3)cccc12 (as salt: hydrochloride)
285 to 287 °C | Cc1ccc(S(=O)(=O)c2c[nH]c3c(N4CCNCC4)cccc23)cc1 [compound 102, 7-piperazin-1-yl-3-(toluene-4-sulfonyl)-1H-indole]
290 °C | O=S(=O)(c1ccc(Cl)c(Cl)c1)c1c[nH]c2c(N3CCNCC3)cccc12 [compound 103, 3-(3,4-dichloro-benzenesulfonyl)-7-piperazin-1-yl-1H-indole]
247 to 249 °C | O=S(=O)(c1ccc(F)cc1)c1c[nH]c2c(N3CCNCC3)cccc12 [compound 104, 3-(4-fluoro-benzenesulfonyl)-7-piperazin-1-yl-1H-indole]
300 °C | O=S(=O)(c1ccc(Cl)cc1Cl)c1c[nH]c2c(N3CCNCC3)cccc12 [compound 106, 3-(2,4-dichloro-benzenesulfonyl)-7-piperazin-1-yl-1H-indole]
295 °C | O=S(=O)(c1cccc(Cl)c1)c1c[nH]c2c(N3CCNCC3)cccc12 [compound 107, 3-(3-chloro-benzenesulfonyl)-7-piperazin-1-yl-1H-indole]
280 to 282 °C | O=S(=O)(c1ccccc1Cl)c1c[nH]c2c(N3CCNCC3)cccc12 [compound 108, 3-(2-chloro-benzenesulfonyl)-7-piperazin-1-yl-1H-indole]

The next lines start with the compound.

SMILES | melting point
O=S(=O)(c1ccccn1)c1c[nH]c2cc(N3CCNCC3)ccc12 | 246.7 to 247.2 °C
O=S(=O)(c1ccccc1)c1c[nH]c2ccc(N3CCNCC3)cc12 | 254 to 264 °C (dec.)
c1ccc(Sc2c[nH]c3c(N4CCNCC4)cccc23)cc1 | 300 °C
Clc1cccc(Sc2c[nH]c3ccc(N4CCNCC4)cc23)c1Cl | 255.1 to 255.5 °C
c1ccc(Sc2c[nH]c3ccc(N4CCNCC4)cc23)cc1 | 246 to 247 °C
Cn1cc(S(=O)(=O)c2ccccc2)c2cccc(N3CCNCC3)c21 (as salt: hydrochloride) [compound 401, 3-benzenesulfonyl-1-methyl-7-piperazin-1-yl-1H-indole hydrochloride] | 249 to 250 °C
CN1CCN(c2cccc3c(S(=O)(=O)c4ccccc4)c[nH]c23)CC1 (as salt: hydrochloride) [compound 501, 3-benzenesulfonyl-7-(4-methyl-piperazin-1-yl)-1H-indole] | 160 to 162 °C
O=S(=O)(c1cc(Cl)cc(Cl)c1)c1c[nH]c2c(N3CCNCC3)cccc12 [compound 105, 3-(3,5-dichloro-benzenesulfonyl)-7-piperazin-1-yl-1H-indole] | 290 °C
O=S(=O)(c1ccccc1C(F)(F)F)c1c[nH]c2c(N3CCNCC3)cccc12 [compound 109, 7-piperazin-1-yl-3-(2-trifluoromethyl-benzenesulfonyl)-1H-indole] | 186 to 187 °C
O=S(=O)(c1cccc(Cl)c1)c1c[nH]c2ccc(N3CCNCC3)cc12 [compound 110, 3-(3-chloro-benzenesulfonyl)-5-piperazin-1-yl-1H-indole] | 192 to 197 °C
O=S(=O)(c1ccc(Cl)c(Cl)c1)c1c[nH]c2ccc(N3CCNCC3)cc12 [compound 111, 3-(3,4-dichloro-benzenesulfonyl)-5-piperazin-1-yl-1H-indole] | > 300 °C
O=S(=O)(c1nc2ccccc2s1)c1c[nH]c2c(N3CCNCC3)cccc12 [compound 114, 2-(7-piperazin-1-yl-1H-indole-3-sulfonyl)-benzothiazole] | 295 °C
O=S(=O)(c1cccc(Cl)c1Cl)c1c[nH]c2ccc(N3CCNCC3)cc12 [compound 202, 3-(2,3-dichloro-benzenesulfonyl)-5-piperazin-1-yl-1H-indole] | > 300 °C
